Paper PMC5706432, “Host-guest interaction of β-cyclodextrin with isomeric ursolic acid and oleanolic acid: physicochemical characterization and molecular modeling study” (Journal of Biomedical Research, 2017)

Test: UV-vis absorption, stability constant by modified Benesi-Hildebrand equation
Format: physicochemical
Settings: UV absorption spectra, ethanol/water (50%, v/v), 1:1 host-guest complex assumed
Protocol: Furthermore, absorption spectra obtained with various concentrations of β-CD (0 to 1.44 mmol/L) and added to a constant drug (0.03753 mmol/L UA or 0.038715 mmol/L OA) concentration in ethanol/water (50%, v/v) were scanned by the UV spectrophotometry (Shimadzu UV-2401 visible spectrophotometer, Shimadzu Corp., Tokyo, Japan). The stability constant was calculated according to the modified Benesi-Hildebrand equation Eq. (1) assuming the formation of a 1:1 host-guest complex^[[14]^].
(1) 1/ΔA=1/KΔε[D]01/[CD]0+1/Δε[D]0 Where ΔA was the change in absorbance of drugs at λmax in the presence and absence of β-CD. [D]0 and [CD]0 were the total concentration of added drug and β-CD, respectively. Δε represented the difference in molar absorptivities between the free drug and the inclusion complex, and K was the stability constant.

Row | SMILES | stability constant K
1 | CC1(C)CC[C@]2(C(=O)O)CC[C@]3(C)C(=CC[C@@H]4[C@@]5(C)CC[C@H](O)C(C)(C)[C@@H]5CC[C@]43C)[C@@H]2C1 [OA, oleanolic acid] | 5157 L/mol
2 | C[C@H]1[C@H](C)CC[C@]2(C(=O)O)CC[C@]3(C)C(=CC[C@@H]4[C@@]5(C)CC[C@H](O)C(C)(C)[C@@H]5CC[C@]43C)[C@H]12 [UA, ursolic acid] | 5642 L/mol
